# Data reported in ChEMBL document CHEMBL1926644, “Novel substrate-based inhibitors of human glutamate carboxypeptidase II with enhanced lipophilicity” (J Med Chem, 2011).
# Target: Glutamate carboxypeptidase 2 (Homo sapiens, UniProt Q04609)
# Test: Inhibition of glutamate carboxypeptidase 2 in human LNCAP cells assessed as glutamate formation using NAAG as substrate after 60 mins by fluorometric analysis
# Format: cell-based
# Sequence of Glutamate carboxypeptidase 2 (Q04609 whole entry): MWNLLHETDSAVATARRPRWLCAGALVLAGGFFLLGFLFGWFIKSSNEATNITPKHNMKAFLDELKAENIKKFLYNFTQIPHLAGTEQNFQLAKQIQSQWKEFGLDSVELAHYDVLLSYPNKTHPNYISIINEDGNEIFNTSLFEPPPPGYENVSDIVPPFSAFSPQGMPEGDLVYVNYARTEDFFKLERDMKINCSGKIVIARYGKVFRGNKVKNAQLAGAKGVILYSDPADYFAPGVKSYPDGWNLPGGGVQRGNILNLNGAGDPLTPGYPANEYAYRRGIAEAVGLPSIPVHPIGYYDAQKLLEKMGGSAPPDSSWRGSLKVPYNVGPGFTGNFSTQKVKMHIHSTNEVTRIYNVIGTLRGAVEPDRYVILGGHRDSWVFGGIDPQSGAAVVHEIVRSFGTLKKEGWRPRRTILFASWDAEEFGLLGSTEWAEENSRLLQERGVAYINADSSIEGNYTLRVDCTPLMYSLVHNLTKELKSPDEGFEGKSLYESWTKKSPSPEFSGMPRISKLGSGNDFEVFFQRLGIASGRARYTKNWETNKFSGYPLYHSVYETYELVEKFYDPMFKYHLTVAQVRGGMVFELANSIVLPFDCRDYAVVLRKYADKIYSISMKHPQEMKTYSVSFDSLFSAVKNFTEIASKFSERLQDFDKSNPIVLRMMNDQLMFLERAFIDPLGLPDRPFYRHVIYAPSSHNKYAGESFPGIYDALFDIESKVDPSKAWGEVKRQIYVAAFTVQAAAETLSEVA
row,SMILES,Ki [µM]
1,CC[C@H](NC(=O)N[C@@H](CCCCNC(=O)c1ccc(I)cc1)C(=O)O)C(=O)O,0.121
2,O=C(O)CNC(=O)N[C@@H](CCCCNC(=O)c1ccc(I)cc1)C(=O)O,4.39
3,C[C@H](NC(=O)N[C@@H](CCCCNC(=O)c1ccc(I)cc1)C(=O)O)C(=O)O,0.325
4,CCCC[C@H](NC(=O)N[C@@H](CCCCNC(=O)c1ccc(I)cc1)C(=O)O)C(=O)O,0.056
5,CCC[C@H](NC(=O)N[C@@H](CCCCNC(=O)c1ccc(I)cc1)C(=O)O)C(=O)O,0.145

# Results, then the molecule that gave them:
row,Ki [µM],SMILES
1,0.029,CCCCCCC[C@H](NC(=O)N[C@@H](CCCCNC(=O)c1ccc(I)cc1)C(=O)O)C(=O)O
2,0.072,CCCCCC[C@H](NC(=O)N[C@@H](CCCCNC(=O)c1ccc(I)cc1)C(=O)O)C(=O)O
3,0.02,CCCCC[C@H](NC(=O)N[C@@H](CCCCNC(=O)c1ccc(I)cc1)C(=O)O)C(=O)O

# Species on record: Homo sapiens
# Test: Ratio of Km for wild type recombinant human glutamate carboxypeptidase 2 to Km for recombinant human glutamate carboxypeptidase 2 K699S mutant
row,Ratio,SMILES
1,3,CCCCCCCC(NC(=O)[C@H](CC(=O)O)NC(C)=O)C(=O)O (mixture of isomers)
